From the Kinase Knowledgebase extract (Sharma et al. 2016) come the findings set out here.

The experiment addresses CDK2 (human) (UniProt P24941). The experiment is described as follows: Enzyme Assay.

Regarding `CC1CCCN(Cc2ccc3cc(-c4csc(-c5ccncc5)n4)c(=O)[nH]c3c2)C1` (centres undefined), the IC50 was less than 1000 nM. As for `O=c1[nH]c2ccccc2cc1-c1nc(-c2ccncc2)cs1`, the figure is less than 1000 nM; as for `CC(C)NC[C@H]1CCCN1Cc1ccc2cc(-c3csc(CS(=O)(=O)c4ccccc4)n3)c(=O)[nH]c2c1`, less than 1000 nM.

In turn, `CSc1nc2[nH]c(=O)c(-c3csc(-c4ccncc4)n3)cc2s1` yielded an IC50 of less than 1000 nM. The molecule `O=c1[nH]c2ccccc2cc1-c1csc(CS(=O)(=O)c2ccccc2)n1` returned an IC50 of less than 1000 nM. Turning to `CN1CCN(c2ccc3[nH]c(=O)c(-c4csc(-c5ccncc5)n4)c(N)c3c2)CC1`, the IC50 was less than 1000 nM. As for `CCN(CC)C(=O)c1ccc2cc(-c3csc(N(C)S(=O)(=O)c4ccccc4)n3)c(=O)[nH]c2c1`, the figure is less than 1000 nM. As to `O=c1[nH]c2cc(CN3CCCC3)ccc2cc1-c1csc(-c2ccncc2)n1`, the IC50 is less than 1000 nM.

`O=c1[nH]c2cc(CO)ccc2cc1-c1csc(CS(=O)(=O)c2ccccc2)n1` had an IC50 of less than 1000 nM.

Molecule `CN1CCN(Cc2ccc3cc(-c4csc(-c5ccncc5)n4)c(=O)[nH]c3c2)CC1` came in with an IC50 of less than 1000 nM.

Molecule `CN(c1nc(-c2cc3ccccc3[nH]c2=O)cs1)S(=O)(=O)c1ccccc1` came in with an IC50 of less than 1000 nM. Take `O=c1[nH]c2cc(O)ccc2cc1-c1csc(CS(=O)(=O)c2ccccc2)n1`: the IC50 was less than 1000 nM.

For the molecule `CC(C)C(CO)NCc1ccc2cc(-c3csc(-c4ccncc4)n3)c(=O)[nH]c2c1` (centres undefined), the IC50 is less than 1000 nM. In turn, `O=c1[nH]c2cc(CN3CCOCC3)ccc2cc1-c1csc(-c2ccncc2)n1` had an IC50 of less than 1000 nM. `O=c1[nH]c2cc(CN3CCCC(O)C3)ccc2cc1-c1csc(-c2ccncc2)n1` (centres undefined) gave an IC50 of less than 1000 nM. `C=CCN(c1nc(-c2cc3ccccc3[nH]c2=O)cs1)S(=O)(=O)c1ccccc1` came in with an IC50 of less than 1000 nM. `C[C@@H]1CN(Cc2ccc3cc(-c4csc(CS(=O)(=O)c5ccccc5)n4)c(=O)[nH]c3c2)C[C@H](C)N1` gave an IC50 of less than 1000 nM. As for `CC(C)[C@H]1CN(Cc2ccc3cc(-c4csc(CS(=O)(=O)c5ccccc5)n4)c(=O)[nH]c3c2)CCN1`, the figure is less than 1000 nM; as for `CC(C)NCc1ccc2cc(-c3csc(-c4ccncc4)n3)c(=O)[nH]c2c1`, less than 1000 nM. In turn, `CN(C)CCOc1ccc2cc(-c3csc(-c4ccncc4)n3)c(=O)[nH]c2c1` displayed an IC50 of less than 1000 nM. The result for `CN1CCN(Cc2ccc3cc(-c4csc(CS(=O)(=O)c5ccccc5)n4)c(=O)[nH]c3c2)CC1` reads less than 1000 nM; that for `O=c1[nH]c2cc(C(F)(F)F)ccc2cc1-c1csc(CS(=O)(=O)c2cccs2)n1`, less than 1000 nM; that for `CN1CCN(C(=O)c2ccc3cc(-c4csc(CS(=O)(=O)c5ccccc5)n4)c(=O)[nH]c3c2)CC1`, less than 1000 nM. Molecule `COc1ccc2cc(-c3csc(CS(=O)(=O)c4ccccc4)n3)c(=O)[nH]c2c1` displayed an IC50 of less than 1000 nM.

Take `O=c1[nH]c2ccccc2cc1-c1csc(CS(=O)(=O)c2cccs2)n1`: the IC50 was less than 1000 nM. The result for `Cc1onc(-c2ccccc2)c1-c1csc(-c2cc3ccccc3[nH]c2=O)n1` reads less than 1000 nM. The result for `CCNCCNc1ncc2cc(-c3csc(-c4ccncc4)n3)c(=O)[nH]c2n1` reads less than 1000 nM. As for `CC(C)N(C)Cc1ccc2cc(-c3csc(-c4ccncc4)n3)c(=O)[nH]c2c1`, the figure is less than 1000 nM; as for `O=c1[nH]c2ccccc2cc1-c1csc(-c2ccnc(NCCCO)c2)n1`, less than 1000 nM; as for `O=c1[nH]c2ccccc2cc1-c1csc(CS(=O)(=O)c2ccccn2)n1`, less than 1000 nM. On to `O=c1[nH]c2ccccc2cc1-c1csc(-c2ccc(-c3csnn3)cc2)n1`, for which the IC50 was less than 1000 nM.

Take `O=C(c1ccc2cc(-c3csc(-c4ccncc4)n3)c(=O)[nH]c2c1)N1CCCCC1`: the IC50 is less than 1000 nM. As for `O=c1[nH]c2cc(CN3CC=CCC3)ccc2cc1-c1csc(CS(=O)(=O)c2ccccc2)n1`, the figure is less than 1000 nM; as for `CC1CN(Cc2ccc3cc(-c4csc(CS(=O)(=O)c5ccccc5)n4)c(=O)[nH]c3c2)CC(C)O1` (centres undefined), less than 1000 nM.

As usually defined, the IC50 is the point on the concentration scale where inhibition reaches its midpoint. A lower IC50 goes with greater potency.
